Among the data in patent US5925633A, “3-Substituted-4-oxa-1-azabicyclo [3,2,0]heptan-7-one as cysteine protease inhibitors” (Synphar Laboraties, Inc., priority 1996, dated 1999) are IC50 values, retold here.

Test [1] has as its target T1, papain (Carica papaya, UniProt P00784).
T1 sequence (P00784 134-345): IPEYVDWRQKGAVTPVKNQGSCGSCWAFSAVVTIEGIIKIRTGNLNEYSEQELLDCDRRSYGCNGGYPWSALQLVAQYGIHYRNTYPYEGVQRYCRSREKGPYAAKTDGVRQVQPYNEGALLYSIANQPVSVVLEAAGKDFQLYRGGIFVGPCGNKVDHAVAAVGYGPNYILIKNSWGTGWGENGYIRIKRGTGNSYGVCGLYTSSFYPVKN
Put plainly: In vitro assay procedure for papain (inhibition). Type of test: biochemical. As to conditions: pH 6.5, 10 min incubation at room temperature, substrate N-CBZ-Pro-Phe-Arg-pNA; read-out: IC50 Papain. As for the experimental part: To a 170 μl of enzyme-buffer mixture (enzyme: papain, diluted to give 30 mOD/min, buffer: 0.2 M potassium phosphate, 1.0 mM EDTA, 5 mM L-Cysteine, pH 6.5) a 10 μL of inhibitor (dissolved in DMSO) was added. After 10 min of incubation at room temperature, a 20 μl of 10 mM substrate (N-CBZ-Pro-Phe-Arg-pNA, dissolved in DMSO) was added to initiate reaction. Reading is followed up for 3 min at the Thermomax plate reader (absorbance at 405 nm)
A plot of percentage of inhibition vs inhibitor concentration is obtained, and IC50 is determined using a linear regression calculations (concentration of inhibitor which will give 50% inhibition).

Test [2] concerns the target cathepsin B (Rattus norvegicus, UniProt P00787). Put plainly: In vitro assay procedure for cathepsin B (inhibition). It counts as biochemical. As to conditions: rat cathepsin B, pH 5.1, 10 min incubation at room temperature, substrate N-CBZ-Phe-Arg-AMC; read-out: IC50 Cathepsin B.
Description: The compounds of formula I were tested for inhibition of cathepsin B using the known method (A. J. Barret et al., Biochem. J. 1982, 201, 189-198). […] After 10 min of incubation at room temperature, a 20 μl of 5 mM substrate (N-CBZ-Phe-Arg-AMC, dissolved in DMSO) was added to initiate reaction. Reading is followed up for 10 min at the fluoroscan reader (excitation at 380 nm, emission at 460 nm).

cathepsin B, sequence (P00787 80-339): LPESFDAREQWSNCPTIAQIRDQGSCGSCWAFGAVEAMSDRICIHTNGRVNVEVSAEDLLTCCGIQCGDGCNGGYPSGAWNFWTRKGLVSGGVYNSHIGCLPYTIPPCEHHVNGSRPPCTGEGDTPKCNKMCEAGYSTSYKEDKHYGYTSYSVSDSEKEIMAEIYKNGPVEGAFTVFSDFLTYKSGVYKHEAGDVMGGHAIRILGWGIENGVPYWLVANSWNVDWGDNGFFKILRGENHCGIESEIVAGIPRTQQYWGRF

As usually defined, the IC50 is the concentration at which inhibition is half-maximal. For the molecule `O=COCCCCCC(=O)NCC1CN2C(=O)CC2O1` (stereo not drawn) [Example 38], the IC50 in test [1] was determined as 2200 nM; in test [2], 3500 nM.
The like results for `NCC1CN2C(=O)CC2O1` (stereo not drawn) [Example 39] were, in that order, 5500 nM and 5500 nM.
With `NC(CC(=O)O)C(=O)NCC(=O)NCC1CN2C(=O)CC2O1` (stereo not drawn) [Example 40], the half-maximal inhibitory concentration (IC50) in test [1] stood at 8300 nM; in test [2] it was 15900 nM.
Turning to `CC(=O)NCCCCC(NC(C)=O)C(=O)OCC1CN2C(=O)CC2O1` (stereo not drawn) [Example 43], the IC50 is 1770 nM in test [1] and greater than 70000 nM in test [2].
The like results for `CC(=O)OCC1CN2C(=O)CC2O1` (stereo not drawn) [Example 44] were, in that order, 210 nM and 1100 nM.
As to `O=C(CO)NCC1CN2C(=O)CC2O1` (stereo not drawn) [Example 45], the concentration for half-maximal inhibition (IC50) amounted to 1690 nM in test [1] and 5000 nM in test [2].
Regarding `O=C(OCC1CN2C(=O)CC2O1)c1ccc2c(c1)C(=O)c1ccccc1C2=O` (stereo not drawn) [Example 46], the results for the concentration for half-maximal inhibition (IC50) in test [1] and in test [2] were 21 nM and 530 nM, respectively.
For the molecule `COc1ccc(C(=O)NCC2CN3C(=O)CC3O2)cc1OC` (stereo not drawn) [Example 47], the values for the IC50 in test [1] and in test [2] were 130 nM and 8800 nM, respectively.
Consider `O=C1CC2OC(CSc3ccccc3)CN12` (stereo not drawn) [Example 48], for which the half-maximal inhibitory concentration (IC50) in test [1] is 850 nM; in test [2] it was 420 nM.
As to `NC(Cc1ccccc1)C(=O)NCC1CN2C(=O)CC2O1` (stereo not drawn) [Example 49], the values for the IC50 in test [1] and in test [2] were 620 nM and 3080 nM, respectively.
For `O=C(OCC1CN2C(=O)CC2O1)c1ccc(O)c(O)c1` (stereo not drawn) [Example 50] the same measures were 2500 nM and 460 nM.
On to `COc1ccc(C(=O)OCC2CN3C(=O)CC3O2)cc1OC` (stereo not drawn) [Example 51], for which the IC50 in test [1] was determined as 130 nM; in test [2], 3300 nM.
For `COc1cc(C(=O)OCC2CN3C(=O)CC3O2)cc(OC)c1O` (stereo not drawn) [Example 52], the IC50 in test [1] turned out to be 620 nM; in test [2], 3100 nM.
Take `Nc1ccc(C(=O)OCC2CN3C(=O)CC3O2)cc1` (stereo not drawn) [Example 53]: the IC50 in test [1] worked out at 2400 nM; in test [2] it was 3800 nM.
On to `O=C(OCC1CN2C(=O)CC2O1)c1cc(F)c(F)cc1F` (stereo not drawn) [Example 54], for which the results for the 50% inhibitory concentration (IC50) in test [1] and in test [2] were 660 nM and 8300 nM, respectively.
For `N#Cc1ccc(C(=O)OCC2CN3C(=O)CC3O2)cc1` (stereo not drawn) [Example 55] the same measures were 740 nM and 3700 nM.
Take `Cc1ccc(S(=O)(=O)NCC2CN3C(=O)CC3O2)cc1` (stereo not drawn) [Example 56]: the figures for the IC50 in test [1] and in test [2] were 1760 nM and 670 nM, respectively.
Regarding `O=C1CC2OC(CNS(=O)(=O)c3ccc(Cl)cc3)CN12` (stereo not drawn) [Example 57], the IC50 in test [1] and in test [2] was 630 nM throughout.
As for `O=C(NCC1CN2C(=O)CC2O1)c1ccccc1` (stereo not drawn) [Example 58], the IC50 in test [1] was found to be 810 nM; in test [2] it was 4100 nM.
The like results for `COc1ccc(S(=O)(=O)NCC2CN3C(=O)CC3O2)cc1` (stereo not drawn) [Example 59] were, in that order, 3200 nM and 640 nM.
For `O=C(OCC1CN2C(=O)CC2O1)c1ccccc1` (stereo not drawn) [Example 60] the same measures were 4000 nM and 4000 nM.
Regarding `O=C1CC2OC(CS(=O)(=O)c3ccccc3)CN12` (stereo not drawn) [Example 61], the concentration for half-maximal inhibition (IC50) in test [1] and in test [2] was 1600 nM throughout.
In the case of `O=C1CC2OC(C[S+]([O-])Cc3ccccc3)CN12` (stereo not drawn) [Example 62], the IC50 in test [1] amounted to 760 nM; in test [2], 8700 nM.
For the molecule `O=C(O)COc1ccc(C(=O)OCC2CN3C(=O)CC3O2)cc1` (stereo not drawn) [Example 63], the 50% inhibitory concentration (IC50) in test [1] stood at 2900 nM; in test [2] it was 2000 nM.
The like results for `O=C(O)c1ccccc1C(=O)OCC1CN2C(=O)CC2O1` (stereo not drawn) [Example 64] were, in that order, 16000 nM and 6900 nM.
Turning to `COc1ccc(C(=O)OCC2CN3C(=O)CC3O2)cc1` (stereo not drawn) [Example 65], the IC50 in test [1] amounted to 2000 nM; in test [2], 8900 nM.
On to `O=C(OCC1CN2C(=O)CC2O1)c1ccc(F)cc1` (stereo not drawn) [Example 66], for which the concentration for half-maximal inhibition (IC50) in test [1] came to 2400 nM; in test [2] it was 3800 nM.
On to `O=C(OCC1CN2C(=O)CC2O1)c1ccc(O)cc1` (stereo not drawn) [Example 67], for which the values for the half-inhibitory concentration (IC50) in test [1] and in test [2] were 2400 nM and 3800 nM, respectively.
As for `COc1ccc(C(=O)NCC2CN3C(=O)CC3O2)cc1` (stereo not drawn) [Example 68], the IC50 is 720 nM in test [1] and 3600 nM in test [2].
For the molecule `O=C(NC(CO)C(=O)OCC1CN2C(=O)CC2O1)OCc1ccccc1` (stereo not drawn) [Example 69], the results for the IC50 in test [1] and in test [2] were 1500 nM and 2700 nM, respectively.
As for `O=C(CNC(=O)OCc1ccccc1)NCC(=O)OCC1CN2C(=O)CC2O1` (stereo not drawn) [Example 70], the IC50 in test [1] was 350 nM; in test [2] it was 6700 nM.
On to `O=C(NC(c1ccccc1)C(O)C(=O)OCC1CN2C(=O)CC2O1)c1ccccc1` (stereo not drawn) [Example 71], for which the half-inhibitory concentration (IC50) in test [1] and in test [2] was 240 nM each time.
`O=C1CC(OCC2CN3C(=O)CC3O2)N1` (stereo not drawn) [Example 73]: the IC50 is 2400 nM in test [1] and 4700 nM in test [2].
As to `O=C(CCCCCCn1ccnn1)NCC1CN2C(=O)CC2O1` (stereo not drawn) [Example 74], the half-inhibitory concentration (IC50) came to 3300 nM in test [1] and 6500 nM in test [2].
On to `O=C(NCC1CN2C(=O)CC2O1)C1CCCCC1` (stereo not drawn) [Example 75], for which the half-inhibitory concentration (IC50) in test [1] was found to be 3970 nM; in test [2] it was 360 nM.
Consider `O=C(O)C1CCCCC1C(=O)OCC1CN2C(=O)CC2O1` (stereo not drawn) [Example 76], for which the half-inhibitory concentration (IC50) in test [1] turned out to be 10900 nM; in test [2], 340 nM.
